Laboratory results taken from patent publication US20230151065A1, “MULTI-DISULFIDE-BOND LONG-CHAIN PEPTIDE WITH NEURO[…], PHARMACEUTICAL COMPOSITION AND APPLICATION” (priority 2018, published 2023).
Where no end group is shown, it is not given here.

What was measured:
[1] = tested on: PI3K/AKT signaling pathway in cortical neurons after OGD damage; experiment: OGD damage of cortical neurons with PI3K inhibitor LY-294002, Western blot of p-AKT and Cleaved caspase-3; type: cell-based, SD rat
[2] = tested on: primary cultured SD fetal rat cortical neurons after OGD damage; experiment: OGD damage of cortical neurons, mitochondrial membrane potential (JC-1, flow cytometer); type: cell-based; conditions: OGD 2 h, 24 h reoxygenation; ABPPk2 8, 40, 200 ng/ml; obvious dose-effect relationship
Experimental: The suspension was filtered with a 400-mesh screen, centrifuged at 1000 rpm for 5 min, and blown to form the single cell suspension. DMEM high glucose complete medium (containing 10% fetal bovine serum) was inoculated in a culture dish or culture plate pre-coated with polylysine (PLL) to culture in 5% CO2 incubator with saturated humidity at 37° C. After the cells were cultured for 4 h to adhere to the wall, the cells were cultured with neuron culture medium (neurobasal+2% B27) for 3 d to observe the growth of neurons. The culture medium containing cytarabine (the final concentration of cytarabine was 2.5 μg/ml) was substituted with half quantity to culture for 3d to inhibit the growth of glial cells and miscellaneous cells to obtain purely cultured primary cortical nerve cells. The purity of the cortical neurons was identified by immunocytochemical staining as more than 90%. […]
(5) Effect of ABPPk2 on mitochondrial membrane potential of cortical neurons after OGD damage: cortical neurons were inoculated in a 6-well plate at 1×10^6 cells/ml; 2 ml of cell suspension was added to each well; and the cortical neurons were cultured to the 7th day. […] The mitochondrial membrane potential of the cortical neurons after OGD damage was detected by a JC-1 staining kit and a flow cytometer. […]

[3] = tested on: primary fetal rat hippocampal neurons; experiment: Growth cones and neurite growth of hippocampal neurons, immunocytochemical staining; type: cell-based; conditions: vs negative control
Experimental: (1) Primary culture of fetal rat hippocampal neurons: after a rat pregnant for 17 days was anesthetized, a fetal rat was taken out under sterile conditions; the brain of the fetal rat was taken out on ice; the hippocampus was carefully taken out under a dissecting microscope; and the blood vessel membranes were removed. 0.125% trypsin/EDTA was digested at 37° C. for 10 min, and the digestion was stopped by adding the DMEM complete medium containing 10% FBS. Cell debris were removed through centrifugal at 1000 rpm for 5 min; the DMEM complete medium was added to resuspend the cells; the cells were gently blown until a single cell suspension was formed; and the cells were inoculated at an appropriate density on a culture plate (dish) pre-coated with polylysine (PLL) and cultured at 37° C., 5% CO2 incubator. After 4 h, the cells were adhered to the wall; the DMEM complete medium was discarded and replaced with neurobasal medium containing different concentrations of ABPPk2 (the concentrations of ABPPk2 were 4 ng/ml, 20 ng/ml and 100 ng/ml); the neurobasal medium containing 10 ng/ml BDNF was used as the positive control group, and neurobasal was used as the negative control group.
(4) The immunocytochemical staining method was used to observe the effect of ABPPk2 on the growth cones of primary fetal rat hippocampal neuron neurites. Primary hippocampal neurons were cultured according to the steps in (1), and the cells were inoculated on small round slides pre-coated with PLL at a density of 5×10^4, and then placed on a 24-well culture plate for culturing. Grouping and treatment were as described above. After 24 h, double-labeled immunocytofluorescent chemical staining of β-tubulin3 (TRITC) and F-actin (FITC) was conducted; the growth of the neurons was observed under a laser confocal microscope; and the area of the neuron growth cone and the length of filopodia were counted, as shown in FIG. 23.
(5) The immunocytochemical staining method was used to observe the effect of ABPPk2 on the growth of primary fetal rat hippocampal neuron neurites. Primary hippocampal neurons were cultured according to the steps in (1), and the cells were inoculated on small round slides pre-coated with PLL at a density of 5×10^4, and then placed on a 24-well culture plate for culturing. Grouping and treatment were as described above. […] The length of the neurites started from the axon hillock of the cell body to the top of the axon. The number of the neurites from the neuron cell bodies refers to the neurites directly connected with the cell bodies, as shown in FIG. 24.
(6) β-tubulin3 […]; the growth of the neurites was observed under the laser confocal microscope; the number of neurite branches and the proportion of the neurites with different lengths were counted; and the number of neurite branches refers to the number of branches of the neurites in a circle with a neuron cell body as the center and a radius of 100 μm.

[4] = tested on: primary cultured SD fetal rat cortical neurons after OGD damage; experiment: OGD damage of cortical neurons, observation under light microscope; type: cell-based; conditions: OGD 2 h, 24 h reoxygenation; ABPPk2 medium-dose (40 ng/ml) and high-dose (200 ng/ml) groups vs OGD damage group
Experimental: The suspension was filtered with a 400-mesh screen, centrifuged at 1000 rpm for 5 min, and blown to form the single cell suspension. DMEM high glucose complete medium (containing 10% fetal bovine serum) was inoculated in a culture dish or culture plate pre-coated with polylysine (PLL) to culture in 5% CO2 incubator with saturated humidity at 37° C. After the cells were cultured for 4 h to adhere to the wall, the cells were cultured with neuron culture medium (neurobasal+2% B27) for 3 d to observe the growth of neurons. The culture medium containing cytarabine (the final concentration of cytarabine was 2.5 μg/ml) was substituted with half quantity to culture for 3d to inhibit the growth of glial cells and miscellaneous cells to obtain purely cultured primary cortical nerve cells. The purity of the cortical neurons was identified by immunocytochemical staining as more than 90%.
After the cortical neurons were cultured to the 7th day, the original culture medium was sucked out, and the cells were rinsed twice with sugar-free DMEM basal medium, for 5 min each time. Each OGD damage group was added with DMEM sugar-free culture medium, placed in a Billups-Rothenberg anaerobic culture chamber, filled with 95% N2/5% CO2 to balance for 15 min, and sealed for 2 h to build an OGD model. […]

[5] = tested on: primary cultured SD fetal rat cortical neurons after OGD damage; experiment: OGD damage of cortical neurons, Western blot of apoptosis-related proteins; type: cell-based
[6] = after OGD and LY-294002 treatment, ABPPk2 high-dose group
[7] = after OGD damage, vs OGD group, ABPPk2 at high dose, LY-294002 30 min
[8] = ABPPk2 4, 20, 100 ng/ml, 12 h as printed (24 h in method)
[9] = after OGD damage and treatment with ABPPk2
[10] = total protein, ABPPk2 medium-dose (40 ng/ml) and high-dose (200 ng/ml) groups vs OGD damage group

Cys-Leu-Glu-Ser-Gly-Thr-Ser-Cys-Ile-Pro-Gly-Ala-Gln-His-Asn-Cys-Cys-Ser-Gly-Val-Cys-Val-Pro-Ile-Val-Thr-Ile-Phe-Tyr-Gly-Val-Cys-Tyr (CLESGTSCIPGAQHNCCSGVCVPIVTIFYGVCY; disulfide (positions not given here); not fully specified (bridges); also: three disulfide bonds, pairing not given here) [ABPPk2, 33 amino acid polypeptide isolated from the extract of Achyranthes bidentata Blume, three pairs of disulfide bonds]
expression of Cleaved caspase-3 [1, 6]: significantly down-regulated | expression of p-AKT [1, 6]: significantly up-regulated | expression of Cleaved caspase-3 [1, 7]: significantly down-regulated | expression of p-AKT [1, 7]: significantly up-regulated | mitochondrial membrane potential [2]: can alleviate the decline in mitochondrial membrane potential | area of the neuron growth cone [3, 8]: the area of the growth cone can be significantly increased | length of filopodia [3, 8]: the length of the filopodia can be increased | length of the neurites ([3]; ABPPk2 for 24 h): the extension of hippocampal neuronal neurites can be significantly promoted | number of the neurites from the neuron cell bodies ([3]; ABPPk2 for 24 h): the number of the neurites from the neuron cell bodies can be significantly increased | number of neurite branches ([3]; ABPPk2 for 48 h): increased significantly | proportion of long neurite neurons ([3]; ABPPk2 for 48 h): significantly higher than that of the negative control group | dead cells under light microscope [4]: the number of dead cells is significantly reduced | expression of AIF in mitochondria [5, 9]: significantly up-regulated | expression of AIF in the nucleus [5, 9]: significantly down-regulated | expression of Cyt C in cytoplasma [5, 9]: significantly down-regulated | expression of Cyt C in mitochondria [5, 9]: significantly up-regulated | Bcl-2 expression ([5]; total protein, ABPPk2 high-dose group (200 ng/ml) vs OGD damage group): significantly up-regulated | Bax expression [5, 10]: significantly down-regulated | Cleaved caspase-3 expression [5, 10]: significantly down-regulated
